# Experimental data taken from patent US11850220B2 (Augusta University Research Institute, Inc., priority 2020, dated 2023).
# Columns and labels:
# [1] = test system: animal gastric mucosa; assay: ulcerogenic liability; format: in vivo; details: in vivo
# [2] = molecular target: COX-1 (Homo sapiens, UniProt P23219); assay: COX-1/2 bio-assay: COX-1; format: biochemical; details: read-out: IC50 ± SD, COX-1
# Source text: (§1) Cyclooxygenases (COX) are the key enzymes capable of the conversion of arachidonic acid to prostaglandins.
# [3] = test system: carrageenan-induced paw edema; assay: carrageenan-induced paw edema technique (anti-inflammatory); format: in vivo; details: for Observed (1/property): 1/(% inhibition of edema thickness at 3 h effect); as to Observed (1/property): test concentration or dose not given here; as to Potency (% Inhibition relative to indomethacin at 3 h effect): test concentration or dose not given here
# Source text: Anti-inflammatory properties of the ibuprofen-amino acid conjugate (5a-j) and ibuprofen-amino acid-4-aminophenol conjugates 7a-j were studied by the standard carrageenan-induced paw edema technique (Naumov, R. N. et al., Bioorg. Med. Chem. Lett. 2015, 25, 2314-2320; Tiwari, A. D. et al., Org. Biomol. Chem. 2014, 12, 7238-7249).
# [4] = test system: hot plate; assay: hot plate technique (central analgesic); format: in vivo; details: for Potency: Relative to indomethacin at 120 min.
# [5] = molecular target: T1, COX-2 (Homo sapiens, UniProt P35354); assay: COX-1/2 bio-assay: COX-2; format: biochemical; details: for IC50: read-out: IC50 ± SD, COX-2; for SI(COX-2/COX-1): selectivity index COX-2/COX-1
# T1 sequence (P35354 18-604): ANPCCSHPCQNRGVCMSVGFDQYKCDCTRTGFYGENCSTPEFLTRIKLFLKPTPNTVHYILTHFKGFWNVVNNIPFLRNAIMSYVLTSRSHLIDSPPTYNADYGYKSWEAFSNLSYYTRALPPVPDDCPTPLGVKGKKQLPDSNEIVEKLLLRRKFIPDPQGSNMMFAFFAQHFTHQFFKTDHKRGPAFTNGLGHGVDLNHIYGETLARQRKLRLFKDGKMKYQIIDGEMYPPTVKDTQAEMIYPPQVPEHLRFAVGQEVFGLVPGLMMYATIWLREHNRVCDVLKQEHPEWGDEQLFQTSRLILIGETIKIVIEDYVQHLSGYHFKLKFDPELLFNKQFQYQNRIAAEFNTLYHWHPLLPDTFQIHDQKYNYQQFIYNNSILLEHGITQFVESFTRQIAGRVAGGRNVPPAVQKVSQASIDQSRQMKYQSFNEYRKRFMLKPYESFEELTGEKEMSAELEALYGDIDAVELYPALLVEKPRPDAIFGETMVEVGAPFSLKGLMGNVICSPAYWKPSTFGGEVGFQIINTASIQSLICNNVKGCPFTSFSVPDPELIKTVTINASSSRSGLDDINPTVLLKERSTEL
# Source text: as §1
# [6] = test system: acetic acid-induced abdominal writhing; assay: acetic acid-induced abdominal writhing technique (peripheral analgesic); format: in vivo; details: for Potency: Relative to indomethacin; for % Inhibition/protection / Writing reflex ± SEM: in vivo; as to % Inhibition/protection: test concentration or dose not given here; as to Writing reflex ± SEM: test concentration or dose not given here
# [7] = % inhibition of edema thickness at 3 h effect, Table 7
# [8] = anti-inflammatory property (% inhibition of edema at 3 h), Table 8
# Sequence of COX-1 (P23219 24-599): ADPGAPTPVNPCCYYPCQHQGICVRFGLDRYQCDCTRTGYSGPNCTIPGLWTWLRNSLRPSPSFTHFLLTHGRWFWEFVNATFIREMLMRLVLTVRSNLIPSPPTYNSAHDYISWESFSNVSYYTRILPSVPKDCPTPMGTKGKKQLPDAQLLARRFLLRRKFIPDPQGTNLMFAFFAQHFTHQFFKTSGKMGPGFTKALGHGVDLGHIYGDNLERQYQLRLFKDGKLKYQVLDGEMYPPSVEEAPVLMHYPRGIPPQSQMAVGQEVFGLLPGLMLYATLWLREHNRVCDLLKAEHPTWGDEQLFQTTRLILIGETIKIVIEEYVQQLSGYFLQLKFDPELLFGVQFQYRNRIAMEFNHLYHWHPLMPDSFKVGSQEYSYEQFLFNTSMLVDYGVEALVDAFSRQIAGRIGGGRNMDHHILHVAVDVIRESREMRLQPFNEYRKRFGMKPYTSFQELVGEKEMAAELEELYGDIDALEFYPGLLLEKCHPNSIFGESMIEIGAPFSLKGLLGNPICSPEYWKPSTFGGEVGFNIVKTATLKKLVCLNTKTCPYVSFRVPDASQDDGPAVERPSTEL
SMILES,% Incidence of ulcer divided by 10 [1],Average of ulcer number [1],Average severity of ulcer [1],Number of animals with ulcer [1],Ulcer index [1],IC50 [2] [µM],Observed (1/property) ([3]; Table 7),% inhibition of edema ([3]; 1 h) [%],Mean edema thickness ([3]; 1 h) [mm],% inhibition of edema ([3]; 2 h) [%],Mean edema thickness ([3]; 2 h) [mm],% inhibition of edema ([3]; 3 h) [%],Mean edema thickness ([3]; 3 h) [mm],% inhibition of edema ([3]; 4 h) [%],Mean edema thickness ([3]; 4 h) [mm],% inhibition of edema ([3]; 24 h) [%],Mean edema thickness ([3]; 24 h) [mm],"Observed property [3, 7] [%]","Observed property [3, 8] [%]",Potency (% Inhibition relative to indomethacin at 3 h effect) [3] [%],further results
CC[C@H](C)[C@@H](NC(=O)C(C)c1ccc(CC(C)C)cc1)C(=O)Nc1ccc(O)cc1 (some centres unmarked) [Compound 7f],0,0,0,0,0,4.86 ± 0.24,0.01111,42,0.71 ± 0.01,48,0.79 ± 0.04,90,0.13 ± 0.02,16,1.05 ± 0.05,42,0.11 ± 0.02,90,90,113,"melting point: 205 °C; % protection ([4]; After 30 min.): (64.5) %; Latency period ± SEM ([4]; After 30 min.): 3.98 ± 0.06 s; % protection ([4]; After 60 min.): (74.0) %; Latency period ± SEM ([4]; After 60 min.): 3.88 ± 0.02 s; % protection ([4]; After 90 min.): (76.4) %; Latency period ± SEM ([4]; After 90 min.): 3.88 ± 0.04 s; % protection ([4]; After 120 min.): (164.4) %; Latency period ± SEM ([4]; After 120 min.): 5.79 ± 0.04 s; Potency [4]: 290; potency, central analgesic properties ([4]; in vivo): 2.9 folds of indomethacin; IC50 [5]: 141 ± 11.1 µM; SI(COX-2/COX-1) [5]: 29.0; Potency [6]: 155; % Inhibition/protection [6]: 85.3%; Writing reflex ± SEM [6]: 14.3 ± 0.8"
"CC(C)Cc1ccc(C(C)C(=O)NCC(=O)Nc2ccc(O)cc2)cc1 (centres unmarked) [Compound 7a, N-(2-((4-Hydroxyphenyl)amino)-2-oxoethyl)-2-(4-isobutylphenyl)propanamide]",0,0,0,0,0,2.7 ± 0.13,0.01316,41,0.73 ± 0.04,65,0.53 ± 0.03,76,0.31 ± 0.02,83,0.21 ± 0.02,42,0.11 ± 0.03,76,76,95,melting point: 175.9 °C; % protection ([4]; After 30 min.): (97.1) %; Latency period ± SEM ([4]; After 30 min.): 4.77 ± 0.07 s; % protection ([4]; After 60 min.): (94.6) %; Latency period ± SEM ([4]; After 60 min.): 4.34 ± 0.04 s; % protection ([4]; After 90 min.): (86.4) %; Latency period ± SEM ([4]; After 90 min.): 4.10 ± 0.02 s; % protection ([4]; After 120 min.): (81.7) %; Latency period ± SEM ([4]; After 120 min.): 3.98 ± 0.11 s; Potency [4]: 144; IC50 [5]: 78.3 ± 5.54 µM; SI(COX-2/COX-1) [5]: 29.0; Potency [6]: 139; % Inhibition/protection [6]: 76.4%; Writing reflex ± SEM [6]: 23.0 ± 0.9
